Data from patent US4740233A, “Substituted 1,2,4-triazolo[1,5-a]-pyrimidine-2-sulfonamides and compositions and methods of controlling undesired vegetation and suppressing the nitrification of ammonium nitrogen in soil” (The Dow Chemical Company, priority 1986, dated 1988).

Key:
rape = assay: Preemergent control of plant species; type: in vivo, Brassica napus; details: Brassica napus, pre-emergence, 336 h; 0.25 lb/acre; read-out: percent preemergent control
Outline: (§1)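 Growth reduction relative to untreated plants of the same species, assessed two weeks after treatment, defines the control value. Compositions, mostly aqueous emulsions, were deposited uniformly on seeded greenhouse soil beds at the tabulated rates, with a water-treated bed as reference.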

jimsonweed = assay: Postemergent control of plant species; type: in vivo, Datura stramonium; details: Datura stramonium, post-emergence, 336 h, read-out: percent postemergent control
Outline: (§2)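 Foliar spray, 2-4 leaf stage, greenhouse. Formulation: acetone solution (2x final conc.) mixed 1:1 with water + 0.1% surface active agent. ~2 wk hold, watered as needed. Readout = % growth reduction vs untreated same-species controls.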

yellow nutsedge [1] = assay: Control of aquatic plant species (paddy water); type: in vivo, Cyperus esculentus; details: Cyperus, 216 h, nine days, read-out: Percent control; for pest or weed control at 1000 g/ha: 1.0 Kg/Ha
Outline: (§3)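 1-2 inch plants transplanted into ~2 in soil, flooded ~1 in deep; acetone concentrate injected into floodwater, volume adjusted for target concentration; % control scored at 9 days.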

pigweed = assay: Preemergent control of plant species; type: in vivo, Amaranthus spp.; details: Amaranthus retroflexus, pre-emergence, 336 h; 0.25 lb/acre; read-out: percent preemergent control
Outline: as §1

johnson grass = assay: Preemergent control of plant species; type: in vivo, Sorghum halepense; details: Sorghum halepense, pre-emergence, 336 h; 0.25 lb/acre; read-out: percent preemergent control
Outline: as §1

crabgrass = assay: Preemergent control of plant species; type: in vivo, Digitaria spp.; details: Digitaria sanguinalis, pre-emergence, 336 h; 0.25 lb/acre; read-out: percent preemergent control
Outline: as §1

rice = assay: Control of aquatic plant species (paddy water); type: in vivo, Oryza sativa; details: Oryza sativa, 216 h, nine days, read-out: Percent control; for pest or weed control at 1000 g/ha: 1.0 Kg/Ha
Outline: as §3

sorghum [2] = assay: Postemergent control of plant species; type: in vivo, Sorghum vulgare; details: Sorghum, post-emergence, 336 h, read-out: percent postemergent control
Outline: as §2

velvetleaf = assay: Preemergent control of plant species; type: in vivo, Abutilon theophrasti; details: Abutilon theophrasti, pre-emergence, 336 h; 0.25 lb/acre; read-out: percent preemergent control
Outline: as §1

corn = assay: Postemergent control of plant species; type: in vivo, Zea mays; details: Zea mays, post-emergence, 336 h, read-out: percent postemergent control
Outline: as §2

barnyardgrass = assay: Control of aquatic plant species (paddy water); type: in vivo, Echinochloa crusgalli; details: Echinochloa crus-galli, 216 h, nine days, read-out: Percent control; for pest or weed control at 1000 g/ha: 1.0 Kg/Ha
Experimental: In testing for such utility, the plant species to be tested were transplanted into 16 oz. containers into about 2 inches of soil when they were in the 1-2 inch stage and then flooded to a depth of about 1 inch. An acetone concentrate of the chemical to be tested was then injected into the paddy water, the volume injected being varied as desired to provide the desired concentration. Percent control was evaluated nine days after application.

yellow nutsedge [3] = assay: Postemergent control of plant species; type: in vivo, Cyperus esculentus; details: Cyperus, post-emergence, 336 h, read-out: percent postemergent control
Outline: as §2

sugar beet = assay: Postemergent control of plant species; type: in vivo, Beta saccharifera; details: Beta vulgaris, post-emergence, 336 h, read-out: percent postemergent control
Outline: as §2

soybean = assay: Preemergent control of plant species; type: in vivo, Glycine max.; details: Glycine max, pre-emergence, 336 h; 0.25 lb/acre; read-out: percent preemergent control
Outline: as §1

sprangletop = assay: Control of aquatic plant species (paddy water); type: in vivo, Leptochloa filiformis; details: Leptochloa filiformis, 216 h, nine days, read-out: Percent control; for pest or weed control at 1000 g/ha: 1.0 Kg/Ha
Outline: as §3

annual morning glory = assay: Postemergent control of plant species; type: in vivo, Ipomoea spp.; details: Ipomoea, post-emergence, 336 h, read-out: percent postemergent control
Outline: as §2

sorghum [4] = assay: Preemergent control of plant species; type: in vivo, Sorghum vulgare; details: Sorghum, pre-emergence, 336 h; 0.25 lb/acre; read-out: percent preemergent control
Outline: as §1

cotton = assay: Postemergent control of plant species; type: in vivo, Gossypium spp.; details: Gossypium hirsutum, post-emergence, 336 h, read-out: percent postemergent control
Outline: as §2

[5] = test system: annual sugar beet variety (SLC03); assay: Plant growth regulator activity, postemergence; type: in vivo; details: Beta vulgaris, post-emergence, 672 h, 4 weeks after spraying; read-out: Bolting Inhibition (postemergence), concentration with observed effect
From the text: Using a regular biennial variety, even a bolting-susceptible variety would require a cold treatment of around 10-16 weeks plus a hormone treatement in conjunction with specific light intensities. Thus, for a screening organism, we selected one which would consistently produce bolting on a regular schedule. The screen is run with an annual sugar beet variety (SLC03) provided by Dr. Richard J. Hecker, Fort Collins, Colo. This variety is an inbred which bolts in the 6- to 8-leaf stage without any need for vernalization. This allows the screen to be run entirely in the greenhouse with all 110 chemical compounds tested on one tray. The sugarbeets are grown in 3×3 inch square pots in a greenhouse sandy loam potting mix. The sugarbeets are sprayed with test compounds when they are 2 to 3 weeks old (2 true leaves). The compounds are dissolved in acetone and diluted with water containing Tween 20 as a wetting agent. The concentration of acetone in the final spray is 20% and the concentration of Tween 20 is 0.05 percent. The plants are examined for the appearance of a bolt 4 weeks after spraying.

Compound	plant injury at 280.212 g/ha (rape)	pest or weed control at 500 ppm (jimsonweed)	pest or weed control at 1000 g/ha (yellow nutsedge [1])	pest or weed control at 280.212 g/ha (pigweed)	pest or weed control at 280.212 g/ha (johnson grass)	pest or weed control at 280.212 g/ha (crabgrass)	pest or weed control at 1000 g/ha (rice)	plant injury at 500 ppm (sorghum [2])	pest or weed control at 280.212 g/ha (velvetleaf)	plant injury at 500 ppm (corn)	pest or weed control at 1000 g/ha (barnyardgrass)	pest or weed control at 500 ppm (yellow nutsedge [3])	plant injury at 500 ppm (sugar beet)	plant injury at 280.212 g/ha (soybean)	pest or weed control at 1000 g/ha (sprangletop)	pest or weed control at 500 ppm (annual morning glory)	plant injury at 280.212 g/ha (sorghum [4])	plant injury at 500 ppm (cotton)	also measured
Cc1cc(C)n2nc(S(=O)(=O)Nc3ccccc3[N+](=O)[O-])nc2n1 [Compound 12]	95%	70%	95%	60%	80%	10%	70%	75%	30%	10%	97%	90%	95%	95%	0%	100%			
CCc1cccc(CC)c1NS(=O)(=O)c1nc2nc(C)cc(C)n2n1 [Compound 33]	80%	40%	97%	10%	0%	10%	97%	80%	0%	25%	97%	10%	40%	10%	90%	60%	0%	50%	
Cc1cc(C)n2nc(S(=O)(=O)Nc3ccccc3F)nc2n1 [Compound 8]	100%	90%	93%	95%	80%	70%	97%	70%	60%	20%	99%	60%	95%	95%	0%	70%			minimal effective concentration [5]: 50 µg/mL
CC(=O)N(c1c(Cl)cccc1Cl)S(=O)(=O)c1nc2nc(C)cc(C)n2n1 [Compound 262]	100%	100%			60%			90%	100%	50%		80%	100%	100%		100%		100%	
COC(=O)c1cccc(F)c1NS(=O)(=O)c1nc2nc(C)cc(C)n2n1 [Compound 26]	98%	100%		100%	98%	100%		90%	95%	80%		90%	100%	98%		90%		100%	pest or weed control at 125 g/ha (yellow nutsedge [1]; 0.125 Kg/Ha): 95%; pest or weed control at 125 g/ha (rice; 0.125 Kg/Ha): 93%; pest or weed control at 125 g/ha (barnyardgrass; 0.125 Kg/Ha): 90%; pest or weed control at 125 g/ha (sprangletop; 0.125 Kg/Ha): 0%
Cc1cc(C)n2nc(S(=O)(=O)Nc3ccc(Cl)cc3C(F)(F)F)nc2n1 [Compound 34]	95%	90%		50%	80%	0%		60%	80%	0%		60%	100%	80%		75%	90%	70%	
Cc1cc(C)n2nc(S(=O)(=O)Nc3ccccc3I)nc2n1 [Compound 6]	100%	30%	90%	100%	0%	0%	93%	80%	60%	0%	99%	90%	90%	10%	20%	80%	50%	60%	
